Results on six compounds are retold here after US4992439A, “Pyridazine carboxylic acids and esters” (Bristol-Myers Squibb Company, priority 1990, dated 1991).

SMILES strings stand for the structures. ≈ marks a conversion by molar mass, not a printed value.

As usually defined, the IC50 is the concentration that inhibits the measured activity by half.

For the experiment, the system named is human platelet aggregation (ADP-induced). The class given is cell-based. The note with it: human platelet rich plasma; ADP final concentration 0.5 mcg/mL; compounds in DMSO; read-out: Inhibition of Human Platelet Aggregation, IC50 vs. ADP.
Experimental: The aggregometer method of Born, C.V.R., J. Physiol., (London), 1962, 162, 67-68, as modified by Mustard, J. F., et al., J. Lab. Clin. Med. 1964, 64, 548-599 was used to assess the in vitro activity of the various compounds as to the inhibition of adenosine diphosphate (ADP) and collagen-induced platelet aggregation. The human volunteer donor's arm is cleansed with 70% ethyl alcohol. A sterile 20 ml syringe and needle are used to withdraw 20 ml of blood. The blood is immediately added to a test tube containing 3.8% sodium citrate to prevent clotting (1 part citrate to 9 parts blood).
Platelet rich plasma (PRP) was separated by centrifugation for 10 minutes at 1000 rpm (140 xg) from citrated (3.8%) human blood. All glassware used for preparation of PRP is silicon treated. ADP in final concentration of 0.5 mcg/mL or 0.05 mL of a collagen suspension prepared according to the method described by Evans, G., et al., J. Exp. Med., 1968, 128, 877-894 was used to induce aggregation. The various compounds tested were dissolved in dimethylsulfoxide (DMSO) so that 5 mcl added to the platelet rich plasma would yield the desired test concentration. Vehicle control trials were done and compared with aggregation induced in platelet rich plasma containing various concentrations of the test compounds. Dose response curves were obtained and Inhibitor Concentration (IC50) values calculated.
In the case of `COC(=O)CCCCCCCn1nc(-c2ccccc2)c(-c2ccccc2)cc1=O` [Example 3, Methyl 6-Oxo-3,4-diphenyl-1(6H)pyridazinyloctanoate], the IC50 came to 7.7 µg/mL (≈ 19 µM).

Take `COC(=O)CCCCCCCCn1nc(-c2ccccc2)c(-c2ccccc2)cc1=O` [Example 1, Methyl 6-oxo-3,4-diphenyl-1(6H)-pyridazinenonanoate]: the concentration for half-maximal inhibition (IC50) is 21 µg/mL (≈ 50.2 µM).

Consider `O=C(O)COc1cccc(CCn2nc(-c3ccccc3)c(-c3ccccc3)cc2=O)c1` [Example 6, [3-[2-(1,6-Dihydro-6-oxo-3,4-diphenyl-1-pyridazinyl)ethyl]phenoxy]acetic Acid], for which the IC50 amounted to 1 µg/mL (≈ 2.34 µM).

`COC(=O)COc1cccc(CCn2nc(-c3ccccc3)c(-c3ccccc3)cc2=O)c1` [Example 5, Methyl [3-[2-(1,6-dihydro-6-oxo-3,4-diphenyl-1-pyridazinyl)ethyl]phenoxy]acetate]: the IC50 was 0.75 µg/mL (≈ 1.7 µM). In the case of `O=C(O)CCCCCCCn1nc(-c2ccccc2)c(-c2ccccc2)cc1=O` [Example 4, 6-Oxo-3,4-diphenyl-1(6H)-pyridazinyloctanoic Acid] it was 1.6 µg/mL (≈ 4.1 µM); in that of `O=C(O)CCCCCCCCn1nc(-c2ccccc2)c(-c2ccccc2)cc1=O` [Example 2, 6-Oxo-3,4-diphenyl-1(6H)-pyridazinenonanoic acid], 2.9 µg/mL (≈ 7.17 µM).
